The structures appear in SMILES notation. Some results are limits rather than exact numbers.

Data set [1] can be described thus: Cytotoxicity against human PBMC. As to conditions: read-out: TC50 (the source's name). The class given is cell-based.
Data set [2] is described as follows: Therapeutic index, ratio of TC50 for human PBMC to EC50 for HIV-1 subtype B US/92/727 infected in PBMC. As to conditions: uninfected and infected with HIV-1 subtype B US/92/727, read-out: TI.
Data set [3] deals with Human immunodeficiency virus 1. Description: Ratio of FLT EC50 to compound EC50 for HIV-1 subtype 3B infected in CEM-SS cells. Type of data set: functional.
Data set [4] is described as follows: Therapeutic index, ratio of TC50 for human CEM-SS cells to EC50 for HIV-1 subtype 3B infected in CEM-SS cells. Type of data set: cell-based. Conditions: uninfected and infected with HIV-1 subtype 3B, read-out: TI.
Data set [5] concerns Human immunodeficiency virus 1. The data set can be described thus: Ratio of FLT EC50 to compound EC50 for HIV-1 subtype B US/92/727 infected in PBMC. Type of data set: functional.
The nature of data set [6]: Cytotoxicity against human CEM-SS cells by XTT method. The class given is cell-based. Conditions: read-out: TC50 (the source's name). A general note: Tetrazolium assays rely on reduction of a dye to a coloured formazan, in cell work by metabolically active cells.
Data set [7] has as its system Human immunodeficiency virus 1. The data set can be described thus: Antiviral activity against HIV-1 subtype 3B infected in CEM-SS cells assessed as inhibition of viral replication after 6 days by XTT assay. The class given is functional, organism-based. As to conditions: Human immunodeficiency virus 1, subtype 3B, 144 h.
For data set [8], the system named is Human immunodeficiency virus 1. Description: Antiviral activity against HIV-1 subtype B US/92/727 infected in PBMC assessed as inhibition of viral replication after 7 days by XTT assay. The class given is functional, organism-based. Conditions: Human immunodeficiency virus 1, subtype B US/92/727, 168 h.
The test system of data set [9] is Human immunodeficiency virus 1. The data set can be described thus: Ratio of 3TC EC50 to compound EC50 for HIV-1 subtype B US/92/727 infected in PBMC. The class given is functional.
Data set [10] deals with Human immunodeficiency virus 1. Description: Ratio of 3TC EC50 to compound EC50 for HIV-1 subtype 3B infected in CEM-SS cells. Type of data set: functional.
Data set [11] deals with Human immunodeficiency virus 1. Description: Ratio of AZT EC50 to compound EC50 for HIV-1 subtype B US/92/727 infected in PBMC. Type of data set: functional.

For orientation: EC50 means the concentration giving half of the maximal effect. As to `Cc1cn([C@H]2C[C@H](F)[C@@H](COC(=O)CCCCCCCCCCC(=O)OC[C@H]3O[C@@H](n4cc(C)c(=O)[nH]c4=O)C[C@@H]3F)O2)c(=O)[nH]c1=O`, the CC50 in [1] and in data set [6] was > 1 µM throughout. The selectivity ratio was > 1030 in data set [2] and > 250 in data set [4]. In addition, the “Ratio EC50” value in [3] came to 5; in data set [5], 2. Besides, the results for the EC50 in [7] and in data set [8] were 0.004 µM and 0.00097 µM, respectively.
In the case of `Nc1ccn([C@@H]2CS[C@H](CO)O2)c(=O)n1` [LAMIVUDINE], the CC50 in [1] and in data set [6] was > 0.5 µM throughout. Moreover, the selectivity ratio was > 5.6 in data set [2] and > 2.5 in data set [4]. The EC50 in [7] was found to be 0.2 µM; in data set [8] it was 0.09 µM.
`Nc1ccn([C@@H]2CS[C@H](COC(=O)CCCCCCCCCCC(=O)OC[C@@H]3O[C@H](n4ccc(N)nc4=O)CS3)O2)c(=O)n1`: the CC50 in [1] and in [6] was > 1 µM throughout. For the same compound, the figures for the selectivity ratio in data set [2] and in data set [4] were > 50 and > 333, respectively. The EC50 was 0.009 µM in data set [7] and 0.02 µM in [8].
In the case of `Nc1ccn([C@@H]2CS[C@H](COC(=O)CCCCCCCCC(=O)OC[C@@H]3O[C@H](n4ccc(N)nc4=O)CS3)O2)c(=O)n1`, the CC50 in data set [1] and in data set [6] was > 1 µM each time. Also, the values for the selectivity ratio in data set [2] and in data set [4] were > 17 and > 33, respectively. In addition, the “Ratio EC50” value in data set [9] and in [10] was 1.5 each time. For the same compound, the EC50 turned out to be 0.03 µM in data set [7] and 0.06 µM in data set [8].
As for `Cc1cn([C@H]2C[C@H](F)[C@@H](COC(=O)CCCCCCCCC(=O)OC[C@H]3O[C@@H](n4cc(C)c(=O)[nH]c4=O)C[C@@H]3F)O2)c(=O)[nH]c1=O`, the CC50 in [1] and in data set [6] was > 1 µM each time. The values for the selectivity ratio in [2] and in data set [4] were > 1000 and > 250, respectively. Further, the “Ratio EC50” value in data set [3] turned out to be 5. Also, the EC50 in data set [7] is 0.004 µM; in data set [8], 0.001 µM.
With `Cc1cn([C@H]2C[C@H](F)[C@@H](COC(=O)CCCCCCCCCCCCC(=O)OC[C@H]3O[C@@H](n4cc(C)c(=O)[nH]c4=O)C[C@@H]3F)O2)c(=O)[nH]c1=O`, the CC50 in data set [1] and in data set [6] was > 1 µM throughout. Also, the selectivity ratio was > 1320 in [2] and > 333 in [4]. In addition, the “Ratio EC50” value in [3] came to 5; in data set [5] it was 2. For the same compound, the EC50 in data set [7] came out at 0.003 µM; in [8], 0.00076 µM.
For the compound `Cc1cn([C@H]2C[C@H](N=[N+]=[N-])[C@@H](COC(=O)CCCCCCCCCCC(=O)OC[C@H]3O[C@@H](n4cc(C)c(=O)[nH]c4=O)C[C@@H]3N=[N+]=[N-])O2)c(=O)[nH]c1=O`, the CC50 in data set [1] and in [6] was > 1 µM each time. For the same compound, the figures for the selectivity ratio in [2] and in data set [4] were > 500 and > 250, respectively. Besides, the EC50 in data set [7] was found to be 0.004 µM; in data set [8], 0.002 µM.
Regarding `Cc1cn([C@H]2C[C@H](N=[N+]=[N-])[C@@H](COC(=O)CCCCCCCCC(=O)OC[C@H]3O[C@@H](n4cc(C)c(=O)[nH]c4=O)C[C@@H]3N=[N+]=[N-])O2)c(=O)[nH]c1=O`, the CC50 in data set [1] and in data set [6] was > 1 µM in each case. In addition, the selectivity ratio in [2] is > 250; in data set [4], > 200. In addition, the EC50 in data set [7] is 0.005 µM; in data set [8], 0.004 µM.
As for `Cc1cn([C@H]2C[C@H](F)[C@@H](CO)O2)c(=O)[nH]c1=O` [ALOVUDINE], the CC50 in data set [1] and in data set [6] was > 0.5 µM in each case. In addition, the “Ratio EC50” value in data set [11] is listed as 45; in [3], 4. The selectivity ratio in data set [2] was > 250; in data set [4] it was > 25. Moreover, the EC50 in data set [7] is 0.02 µM; in data set [8], 0.002 µM.
Turning to `Cc1cn([C@H]2C[C@H](N=[N+]=[N-])[C@@H](CO)O2)c(=O)[nH]c1=O` [ZIDOVUDINE], the CC50 in [1] was > 1 µM; in data set [6] it was > 0.5 µM. In addition, the selectivity ratio was > 125 in data set [2] and > 250 in data set [4]. For the same compound, the values for the EC50 in data set [7] and in data set [8] were 0.002 µM and 0.008 µM, respectively.
As for `Nc1ccn([C@@H]2CS[C@H](COC(=O)CCC(=O)OC[C@@H]3O[C@H](n4ccc(N)nc4=O)CS3)O2)c(=O)n1`, the CC50 in data set [1] and in data set [6] was > 1 µM throughout. Moreover, the selectivity ratio in data set [2] is > 7; in data set [4] it was > 7.7. Besides, the EC50 in [7] turned out to be 0.13 µM; in data set [8], 0.15 µM.
With `Nc1ccn([C@@H]2CS[C@H](COC(=O)CCCCCCCCCCCCC(=O)OC[C@@H]3O[C@H](n4ccc(N)nc4=O)CS3)O2)c(=O)n1`, the CC50 in data set [1] and in data set [6] was > 1 µM in each case. The selectivity ratio is > 33 in data set [2] and > 333 in data set [4]. Besides, the “Ratio EC50” value in data set [9] and in [10] was 3 in each case. In addition, the values for the EC50 in data set [7] and in data set [8] were 0.003 µM and 0.03 µM, respectively.
As for `Cc1cn([C@H]2C[C@H](N=[N+]=[N-])[C@@H](COC(=O)CCCCCCCCCCCCC(=O)OC[C@H]3O[C@@H](n4cc(C)c(=O)[nH]c4=O)C[C@@H]3N=[N+]=[N-])O2)c(=O)[nH]c1=O`, the CC50 in data set [1] and in data set [6] was > 1 µM in each case. In addition, the selectivity ratio in [2] and in data set [4] was > 333 in each case. The EC50 in [7] and in data set [8] was 0.003 µM throughout.
